Measured values published in US11235976B2, “Nanocarbon-iron composite system as well as composition, preparation method and use thereof” (Chongqing Lummy Pharmaceutical Co., LTD, priority 2017, dated 2022).

Columns and labels:
[1] = test system: SKOV3 ovarian cancer cells; assay: Cell experiment, cell survival rate; assay type: cell-based; settings: iron preparation alone 13.65 μg/mL, 48 h
Procedure: (§1) Cells growing in a log phase are collected, the concentration of the cell suspension is adjusted, 100 μL of cell suspension is added to each well and the cells are plated (edge wells are filled with sterile PBS) at a density of 1×10^3-10^4 cells/well. The cells are incubated for 24 hours at 37° C. under the condition of 5% CO2, a nanocarbon-iron solution having a concentration gradient (nanocarbon content: 125, 62.5, 15.63 and 3.91 μg/mL; and ferric ion content: 13.65, 6.83, 1.71 and 0.43 μg/mL) is added, and three sub-wells are set. Then the cells are incubated for 48 hours at 37° C. under the condition of 5% CO2. 10 μL of CCK8 solution is added to each well and then the cells are continuously incubated for 2 hours. The absorbance of each well is measured at OD=450 nm with the microplate reader. In addition, a negative control group, nanocarbon control groups having the same concentration and iron preparation control groups having the same concentration are set.
as §1, with “and 1” for “100”, “of a 6-well plate” for “and the cells are plated (edge wells are filled with sterile PBS)”, “3×10^4” for “1×10^3-10^4”, “1.71,” for “1.71 and”, “The” for “10 μL of CCK8 solution is added to each well and then the”, “trypsinized and counted.” for “continuously incubated for 2 hours. The absorbance of each well is measured at OD=450 nm with the microplate reader.”

[2] = test system: SMMC7721 liver cancer cells; assay: Cell experiment, cell survival rate; assay type: cell-based; settings: SMMC-7721, 48 h
Procedure: as §1
as §1, with “and 1” for “100”, “of a 6-well plate” for “and the cells are plated (edge wells are filled with sterile PBS)”, “3×10^4” for “1×10^3-10^4”, “1.71,” for “1.71 and”, “The” for “10 μL of CCK8 solution is added to each well and then the”, “trypsinized and counted.” for “continuously incubated for 2 hours. The absorbance of each well is measured at OD=450 nm with the microplate reader.”

[3] = test system: TPC-1 thyroid cancer cells; assay: Cell experiment, cell survival rate; assay type: cell-based; settings: 48 h
Procedure: as §1
as §1, with “and 1” for “100”, “of a 6-well plate” for “and the cells are plated (edge wells are filled with sterile PBS)”, “3×10^4” for “1×10^3-10^4”, “1.71,” for “1.71 and”, “The” for “10 μL of CCK8 solution is added to each well and then the”, “trypsinized and counted.” for “continuously incubated for 2 hours. The absorbance of each well is measured at OD=450 nm with the microplate reader.”

[4] = test system: murine liver cancer H22 cells; assay: Cell experiment, cell survival rate; assay type: cell-based; settings: 48 h
Procedure: as §1
as §1, with “and 1” for “100”, “of a 6-well plate” for “and the cells are plated (edge wells are filled with sterile PBS)”, “3×10^4” for “1×10^3-10^4”, “1.71,” for “1.71 and”, “The” for “10 μL of CCK8 solution is added to each well and then the”, “trypsinized and counted.” for “continuously incubated for 2 hours. The absorbance of each well is measured at OD=450 nm with the microplate reader.”

[5] = test system: subcutaneous transplantation tumors of 9 types of cancer cells; assay: Tumor growth inhibition experiments, subcutaneous transplantation tumors; assay type: in vivo, mice; settings: FIGS. 4-39
Procedure: Cells growing in a log phase are collected, the concentration of the cell suspension is adjusted to 3×10^7 cells/mL, and the cell suspension is inoculated subcutaneously into the right upper extremities of nude mice at the inoculation dosage of 0.1 mL (about 3×10^6 cells) per mouse. When the average tumor volume of the inoculated mice reaches 100 mm^3, the tumor-bearing mice are randomly divided into the following groups (8 nude mice per group): a negative control group (0.9% sodium chloride injection), a nanocarbon control group, an iron preparation control group, a nanocarbon-iron suspension experimental group, and a cis-platinum control group (intraperitoneal injection at the dosage of 5 mg/kg). The above various drugs are injected into the tumors. The tumor volume changes are recorded, and the formula for calculating the volume is Volume=(length×the square of width)/2.
Milky white and thick ascites is extracted from the H22 tumor-bearing mice, the concentration of the cell suspension is adjusted to be 3×10^7 cells/mL, 0.1 mL of cell suspension (about 3×10^6 cells) is inoculated subcutaneously into the right upper extremity of each of Kunming mice. When the average tumor volume of the inoculated mice reaches 100 mm^3, the tumor-bearing mice are randomly divided into the following groups (8 mice per group): a negative control group (0.9% sodium chloride injection), a nanocarbon control group, an iron preparation control group, a nanocarbon-iron suspension experimental group, and a cis-platinum control group (intraperitoneal injection at the dosage of 5 mg/kg). The above various drugs are injected into the tumors. The tumor volume changes are recorded, and the formula for calculating the volume is Volume=(length×the square of width)/2.

[6] = test system: H22 metastatic lymph nodes; assay: Lymph node metastasis inhibition experiment; assay type: in vivo, Kunming mouse; settings: popliteal lymph nodes
Procedure: (§2) Milky white and thick ascites is extracted from the H22 tumor-bearing mice, the concentration is adjusted to be 3×10^7 cells/mL, 0.05 mL of cell suspension (about 1.5×10^6 cells) is inoculated subcutaneously into the left hind foot pads of each Kunming mouse, and thus a lymph node metastasis mouse model is obtained. The mice are treated when the diameter of the tumor reaches 6-8 mm and there is no ulcer and necrosis. The mice are randomly divided into four groups (10 mice per group): a negative control group (0.9% sodium chloride injection), a nanocarbon control group, an iron preparation control group and a nanocarbon-iron suspension experimental group. 10 days after inoculation, the mice are killed, and popliteal lymph nodes are collected, weighed and fixed for pathological examination.

[7] = test system: A549 metastatic lymph nodes; assay: Lymph node metastasis inhibition experiment; assay type: in vivo, nude mouse; settings: popliteal lymph nodes
Procedure: as §2, with “Cells growing in a log phase are collected,” for “Milky white and thick ascites is extracted from the H22 tumor-bearing mice,”, “concentration of the cell suspension” for “concentration”, “to” for “to be”, “the” for “0.05 mL of”, “suspension” for “suspension (about 1.5×10^6 cells)”, “nude mouse at the inoculation volume of 0.05 mL (about 1.5×10^6 cells)” for “Kunming mouse,”

[8] = test system: HCT116 metastatic lymph nodes; assay: Lymph node metastasis inhibition experiment; assay type: in vivo, nude mouse; settings: popliteal lymph nodes
Procedure: as §2, with “Cells growing in a log phase are collected,” for “Milky white and thick ascites is extracted from the H22 tumor-bearing mice,”, “concentration of the cell suspension” for “concentration”, “to” for “to be”, “the” for “0.05 mL of”, “suspension” for “suspension (about 1.5×10^6 cells)”, “nude mouse at the inoculation volume of 0.05 mL (about 1.5×10^6 cells)” for “Kunming mouse,”

[9] = test system: Hela metastatic lymph nodes; assay: Lymph node metastasis inhibition experiment; assay type: in vivo, nude mouse; settings: popliteal lymph nodes
Procedure: as §2, with “Cells growing in a log phase are collected,” for “Milky white and thick ascites is extracted from the H22 tumor-bearing mice,”, “concentration of the cell suspension” for “concentration”, “to” for “to be”, “the” for “0.05 mL of”, “suspension” for “suspension (about 1.5×10^6 cells)”, “nude mouse at the inoculation volume of 0.05 mL (about 1.5×10^6 cells)” for “Kunming mouse,”

[10] = test system: MDA-MB-231 metastatic lymph nodes; assay: Lymph node metastasis inhibition experiment; assay type: in vivo, nude mouse; settings: popliteal lymph nodes
Procedure: as §2, with “Cells growing in a log phase are collected,” for “Milky white and thick ascites is extracted from the H22 tumor-bearing mice,”, “concentration of the cell suspension” for “concentration”, “to” for “to be”, “the” for “0.05 mL of”, “suspension” for “suspension (about 1.5×10^6 cells)”, “nude mouse at the inoculation volume of 0.05 mL (about 1.5×10^6 cells)” for “Kunming mouse,”

[11] = test system: SGC-7901 metastatic lymph nodes; assay: Lymph node metastasis inhibition experiment; assay type: in vivo, nude mouse; settings: popliteal lymph nodes
Procedure: as §2, with “Cells growing in a log phase are collected,” for “Milky white and thick ascites is extracted from the H22 tumor-bearing mice,”, “concentration of the cell suspension” for “concentration”, “to” for “to be”, “the” for “0.05 mL of”, “suspension” for “suspension (about 1.5×10^6 cells)”, “nude mouse at the inoculation volume of 0.05 mL (about 1.5×10^6 cells)” for “Kunming mouse,”

[12] = test system: SKOV3 metastatic lymph nodes; assay: Lymph node metastasis inhibition experiment; assay type: in vivo, nude mouse; settings: popliteal lymph nodes
Procedure: as §2, with “Cells growing in a log phase are collected,” for “Milky white and thick ascites is extracted from the H22 tumor-bearing mice,”, “concentration of the cell suspension” for “concentration”, “to” for “to be”, “the” for “0.05 mL of”, “suspension” for “suspension (about 1.5×10^6 cells)”, “nude mouse at the inoculation volume of 0.05 mL (about 1.5×10^6 cells)” for “Kunming mouse,”

[13] = test system: SMMC-7721 metastatic lymph nodes; assay: Lymph node metastasis inhibition experiment; assay type: in vivo, nude mouse; settings: popliteal lymph nodes
Procedure: as §2, with “Cells growing in a log phase are collected,” for “Milky white and thick ascites is extracted from the H22 tumor-bearing mice,”, “concentration of the cell suspension” for “concentration”, “to” for “to be”, “the” for “0.05 mL of”, “suspension” for “suspension (about 1.5×10^6 cells)”, “nude mouse at the inoculation volume of 0.05 mL (about 1.5×10^6 cells)” for “Kunming mouse,”

[14] = test system: TPC-1 metastatic lymph nodes; assay: Lymph node metastasis inhibition experiment; assay type: in vivo, nude mouse; settings: popliteal lymph nodes
Procedure: as §2, with “Cells growing in a log phase are collected,” for “Milky white and thick ascites is extracted from the H22 tumor-bearing mice,”, “concentration of the cell suspension” for “concentration”, “to” for “to be”, “the” for “0.05 mL of”, “suspension” for “suspension (about 1.5×10^6 cells)”, “nude mouse at the inoculation volume of 0.05 mL (about 1.5×10^6 cells)” for “Kunming mouse,”

[15] = test system: lymph node metastasis of 9 types of tumor cells; assay: Lymph node metastasis inhibition experiment, summary; assay type: in vivo, mice
Procedure: as §2, with “Cells growing in a log phase are collected,” for “Milky white and thick ascites is extracted from the H22 tumor-bearing mice,”, “concentration of the cell suspension” for “concentration”, “to” for “to be”, “the” for “0.05 mL of”, “suspension” for “suspension (about 1.5×10^6 cells)”, “nude mouse at the inoculation volume of 0.05 mL (about 1.5×10^6 cells)” for “Kunming mouse,”
as §2

[16] = iron preparation alone 0.43 μg/mL
[17] = iron preparation alone 1.71 μg/mL
[18] = iron preparation alone 6.83 μg/mL
[19] = iron preparation alone 13.65 μg/mL

Substance: ammonium ferric citrate
- Cell Survival Rate [1]: 100%
- Cell Survival Rate [2, 16]: 100%
- Cell Survival Rate [2, 17]: 98.43%
- Cell Survival Rate [2, 18]: 94.19%
- Cell Survival Rate [2, 19]: 100%
- Cell Survival Rate [3, 16]: 97.30%
- Cell Survival Rate [3, 17]: 96.41%
- Cell Survival Rate [3, 18]: 100%
- Cell Survival Rate [3, 19]: 100%
- Cell Survival Rate [4, 16]: 96.21%
- Cell Survival Rate [4, 17]: 97.64%
- Cell Survival Rate [4, 18]: 95.12%
- Cell Survival Rate [4, 19]: 100%
- inhibition effect on growth of 9 types of tumors [5]: do not have an inhibition effect
- Weight of Lymph Node [6]: 53.94 ± 11.58 mg
- Weight of Lymph Node [7]: 45.67 ± 10.68 mg
- Weight of Lymph Node [8]: 49.57 ± 20.67 mg
- Weight of Lymph Node [9]: 30.94 ± 10.68 mg
- Weight of Lymph Node [10]: 46.97 ± 10.36 mg
- Weight of Lymph Node [11]: 43.69 ± 8.97 mg
- Weight of Lymph Node [12]: 32.98 ± 6.42 mg
- Weight of Lymph Node [13]: 56.98 ± 17.59 mg
- Weight of Lymph Node [14]: 41.97 ± 20.12 mg
- inhibition effect on the metastatic lymph nodes [15]: do not have an inhibition effect
